Results on 8 compounds are retold here after US20120121591A1 (priority 2009, published 2012).

Positions of bridges follow the written chain, without caps; N, C: chain ends. Residues, ends and D or L forms follow the SMILES beside them.

Type in all cases: cell-based
The test system of assay [1] is IL-2 secretion from T cells in human whole blood. As to conditions: read-out: WB (IL-2) IC50 (nM, Avg).
For a further assay, the target named is hKv1.3 (Homo sapiens, UniProt P22001). Kind of assay: cell-based. The settings on record: Kv1.3 (IWQ) IC50 (nM, Avg).
Assay [2] concerns IFN-g secretion from T cells in human whole blood. As to conditions: read-out: WB (IFNg) IC50 (nM, Avg).

Sequence of hKv1.3 (P22001 whole entry): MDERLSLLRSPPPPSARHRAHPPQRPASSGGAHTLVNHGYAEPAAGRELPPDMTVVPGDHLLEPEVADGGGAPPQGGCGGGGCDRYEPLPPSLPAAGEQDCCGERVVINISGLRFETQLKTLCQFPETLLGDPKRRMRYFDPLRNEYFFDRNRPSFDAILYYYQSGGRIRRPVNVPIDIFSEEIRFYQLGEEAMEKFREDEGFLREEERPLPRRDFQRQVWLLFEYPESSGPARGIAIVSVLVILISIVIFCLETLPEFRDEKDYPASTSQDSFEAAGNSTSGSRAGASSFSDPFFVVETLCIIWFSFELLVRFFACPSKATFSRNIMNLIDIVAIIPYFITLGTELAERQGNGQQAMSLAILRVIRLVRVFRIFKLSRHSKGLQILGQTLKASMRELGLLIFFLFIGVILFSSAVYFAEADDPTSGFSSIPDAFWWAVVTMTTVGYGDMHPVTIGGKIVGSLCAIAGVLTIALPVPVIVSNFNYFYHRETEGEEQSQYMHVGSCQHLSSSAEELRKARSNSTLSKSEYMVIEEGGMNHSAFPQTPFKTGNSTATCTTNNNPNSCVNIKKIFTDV

Broadly, the IC50 is the concentration at which inhibition is half-maximal. As to `CC[C@H](C)[C@@H]1NC(=O)[C@H]([C@@H](C)O)NC(=O)[C@H](CC(=O)O)NC(=O)[C@H](CCC(=O)O)NC(=O)[C@@H](NC(=O)[C@H](CO)NC(=O)[C@@H](N)CCCNC(=N)N)CSSC[C@@H](C(N)=O)NC(=O)[C@H]([C@@H](C)O)NC(=O)CNC(=O)[C@@H]2CSSC[C@@H]3NC(=O)[C@H](CCCCN)NC(=O)[C@H](Cc4ccccc4)NC(=O)[C@H](C)NC(=O)[C@H]([C@@H](C)O)NC(=O)[C@H](CSSC[C@H](NC(=O)[C@H](Cc4ccccc4)NC(=O)[C@H](CO)NC(=O)[C@H](CC(C)C)NC(=O)[C@H](CCCNC(=N)N)NC(=O)[C@H](Cc4ccc(O)cc4)NC(=O)[C@H](CCCCN)NC(=O)[C@H](CCSC)NC(=O)[C@H](CO)NC(=O)[C@H](Cc4c[nH]cn4)NC(=O)[C@H](CCCNC(=N)N)NC3=O)C(=O)N[C@@H](CCCCN)C(=O)N[C@@H](CCCNC(=N)N)C(=O)N[C@@H]([C@@H](C)O)C(=O)N2)NC(=O)[C@H](CCCNC(=N)N)NC(=O)[C@H](CCC(=O)O)NC(=O)[C@H](CCCCN)NC(=O)[C@@H]2CCCN2C1=O` [[Glu4,10; Lys16,29;Arg18,30]ShK-amide] (H-RSCEDTIPKERCTAFKCRHSMKYRLSFCKRTCGTC-NH2; disulfide 3-35, 12-28, 17-32), the half-maximal inhibitory concentration (IC50) came to 0.114 nM in assay [1], 0.064 nM on hKv1.3 and 0.217 nM in assay [2].
In the same order, the values of `CCCC[C@@H]1NC(=O)[C@H](CO)NC(=O)[C@H](Cc2c[nH]cn2)NC(=O)[C@H](CCC(=O)O)NC(=O)[C@@H]2CSSC[C@@H]3NC(=O)[C@H]([C@@H](C)O)NC(=O)[C@H](CCCCN)NC(=O)[C@H](CCCNC(=N)N)NC(=O)[C@H](CSSC[C@H](NC(=O)[C@H](CCCNC(=N)N)NC(=O)[C@H](CO)NC(=O)[C@H](CCCCN)NC(=O)[C@@H]4CCCN4C(=O)[C@H]([C@@H](C)CC)NC(=O)[C@H]([C@@H](C)O)NC(=O)[C@H](CC(=O)O)NC(=O)[C@H](CCC(=O)O)NC(=O)[C@@H](NC(=O)[C@H](CO)NC(=O)[C@@H](N)CCCNC(=N)N)CSSC[C@@H](C(N)=O)NC(=O)[C@H]([C@@H](C)O)NC(=O)CNC3=O)C(=O)N[C@@H]([C@@H](C)O)C(=O)N[C@@H](C)C(=O)N[C@@H](Cc3ccccc3)C(=O)N[C@@H](CCCCN)C(=O)N2)NC(=O)[C@H](Cc2ccccc2)NC(=O)[C@H](CO)NC(=O)[C@H](CC(C)C)NC(=O)[C@H](CCCNC(=N)N)NC(=O)[C@H](Cc2ccc(O)cc2)NC(=O)[C@H](CCCCN)NC1=O` [[Glu4,18, Lys16,Nle21]ShK-amide] are 0.603 nM, 0.239 nM and 0.934 nM.
`CCCC[C@@H]1NC(=O)[C@H](CO)NC(=O)[C@H](Cc2c[nH]cn2)NC(=O)[C@H](CCC(=O)O)NC(=O)[C@@H]2CSSC[C@@H]3NC(=O)[C@H]([C@@H](C)O)NC(=O)[C@H](CCCCN)NC(=O)[C@H](CCCNC(=N)N)NC(=O)[C@H](CSSC[C@H](NC(=O)[C@H](CCCNC(=N)N)NC(=O)[C@H](CO)NC(=O)[C@H](CCCCN)NC(=O)[C@@H]4CCCN4C(=O)[C@H]([C@@H](C)CC)NC(=O)[C@H]([C@@H](C)O)NC(=O)[C@H](CC(=O)O)NC(=O)[C@H](CCC(=O)O)NC(=O)[C@@H](NC(=O)[C@H](CO)NC(=O)[C@@H](N)CCCNC(=N)N)CSSC[C@@H](C(N)=O)NC(=O)[C@H]([C@@H](C)O)NC(=O)CNC3=O)C(=O)N[C@@H]([C@@H](C)O)C(=O)N[C@@H](C)C(=O)N[C@@H](C)C(=O)N[C@@H](CCCCN)C(=O)N2)NC(=O)[C@H](Cc2ccccc2)NC(=O)[C@H](CO)NC(=O)[C@H](CC(C)C)NC(=O)[C@H](CCCNC(=N)N)NC(=O)[C@H](Cc2ccc(O)cc2)NC(=O)[C@H](CCCCN)NC1=O` [[Glu4,18,A1a15,Lys16,Nle21]ShK-amide]: the IC50 in assay [1] stood at 1.22 nM; against hKv1.3 it was 0.346 nM; in assay [2] it was 1.6 nM.
In the case of `CCCC[C@@H]1NC(=O)[C@H](CO)NC(=O)[C@H](Cc2c[nH]cn2)NC(=O)[C@H](CCCCN)NC(=O)[C@@H]2CSSC[C@@H]3NC(=O)[C@H]([C@@H](C)O)NC(=O)[C@H](CCCNC(=N)N)NC(=O)[C@H](CCCNC(=N)N)NC(=O)[C@H](CSSC[C@H](NC(=O)[C@H](CCCNC(=N)N)NC(=O)[C@H](CO)NC(=O)[C@H](CCCCN)NC(=O)[C@@H]4CCCN4C(=O)[C@H]([C@@H](C)CC)NC(=O)[C@H]([C@@H](C)O)NC(=O)[C@H](CC(=O)O)NC(=O)[C@H](CCC(=O)O)NC(=O)[C@@H](NC(=O)[C@H](CO)NC(=O)[C@@H](N)CCCNC(=N)N)CSSC[C@@H](C(N)=O)NC(=O)[C@H]([C@@H](C)O)NC(=O)CNC3=O)C(=O)N[C@@H]([C@@H](C)O)C(=O)N[C@@H](C)C(=O)N[C@@H](Cc3ccccc3)C(=O)N[C@@H](CCCCN)C(=O)N2)NC(=O)[C@H](Cc2ccccc2)NC(=O)[C@H](CO)NC(=O)[C@H](CC(C)C)NC(=O)[C@H](CCCNC(=N)N)NC(=O)[C@H](Cc2ccc(O)cc2)NC(=O)[C@H](CCCCN)NC1=O` [[Glu4, Lys16, Nle21,Arg30]ShK-amide], the IC50 stood at 1.18 nM in assay [1], 0.132 nM against hKv1.3 and 1.34 nM in assay [2].
With `CC[C@@H]1NC(=O)[C@H](CO)NC(=O)[C@H](Cc2c[nH]cn2)NC(=O)[C@H](CCCCN)NC(=O)[C@@H]2CSSC[C@@H]3NC(=O)[C@H]([C@@H](C)O)NC(=O)[C@H](CCCCN)NC(=O)[C@H](CCCNC(=N)N)NC(=O)[C@H](CSSC[C@H](NC(=O)[C@H](CCCNC(=N)N)NC(=O)[C@H](CO)NC(=O)[C@H](CCCCN)NC(=O)[C@@H]4CCCN4C(=O)[C@H]([C@@H](C)CC)NC(=O)[C@H]([C@@H](C)O)NC(=O)[C@H](CC(=O)O)NC(=O)[C@H](CCC(=O)O)NC(=O)[C@@H](NC(=O)[C@H](CO)NC(=O)[C@@H](N)CCCNC(=N)N)CSSC[C@@H](C(N)=O)NC(=O)[C@H]([C@@H](C)O)NC(=O)CNC3=O)C(=O)N[C@@H]([C@@H](C)O)C(=O)N[C@@H](C)C(=O)N[C@@H](Cc3ccccc3)C(=O)N[C@@H](CCCCN)C(=O)N2)NC(=O)[C@H](Cc2ccccc2)NC(=O)[C@H](CO)NC(=O)[C@H](CC(C)C)NC(=O)[C@H](CCCNC(=N)N)NC(=O)[C@H](Cc2ccc(O)cc2)NC(=O)[C@H](CCCCN)NC1=O` [[Glu4, Lys16,Abu21]ShK-amide], the values for the half-inhibitory concentration (IC50) (in assay [1]; on hKv1.3; in assay [2]) were 1.11 nM, 0.33 nM and 1.76 nM, respectively.
As to `CCCC[C@@H]1NC(=O)[C@H](CO)NC(=O)[C@H](Cc2c[nH]cn2)NC(=O)[C@H](CCCCN)NC(=O)[C@@H]2CSSC[C@@H]3NC(=O)[C@H]([C@@H](C)O)NC(=O)[C@H](CCCCN)NC(=O)[C@H](CCCNC(=N)N)NC(=O)[C@H](CSSC[C@H](NC(=O)[C@H](CCCNC(=N)N)NC(=O)[C@H](CO)NC(=O)[C@H](CCCCN)NC(=O)[C@@H]4CCCN4C(=O)[C@H]([C@@H](C)CC)NC(=O)[C@H]([C@@H](C)O)NC(=O)[C@H](CC(=O)O)NC(=O)[C@H](CCC(=O)O)NC(=O)[C@@H](NC(=O)[C@H](CO)NC(=O)[C@@H](N)CCCNC(=N)N)CSSC[C@@H](C(N)=O)NC(=O)[C@H]([C@@H](C)O)NC(=O)CNC3=O)C(=O)N[C@@H]([C@@H](C)O)C(=O)N[C@@H](C)C(=O)N[C@@H](Cc3ccccc3)C(=O)N[C@@H](CCCCN)C(=O)N2)NC(=O)[C@H](Cc2ccccc2)NC(=O)[C@H](CO)NC(=O)[C@H](CC(C)C)NC(=O)[C@H](CCCNC(=N)N)NC(=O)[C@H](Cc2ccc(O)cc2)NC(=O)[C@H](CCCCN)NC1=O` [[Glu4, Lys16,Nle21]ShK-amide], the IC50 in assay [1] came out at 0.57 nM; against hKv1.3, 0.149 nM; in assay [2], 0.965 nM.
In the same order, the values of `CCC[C@@H]1NC(=O)[C@H](CO)NC(=O)[C@H](Cc2c[nH]cn2)NC(=O)[C@H](CCCCN)NC(=O)[C@@H]2CSSC[C@@H]3NC(=O)[C@H]([C@@H](C)O)NC(=O)[C@H](CCCCN)NC(=O)[C@H](CCCNC(=N)N)NC(=O)[C@H](CSSC[C@H](NC(=O)[C@H](CCCNC(=N)N)NC(=O)[C@H](CO)NC(=O)[C@H](CCCCN)NC(=O)[C@@H]4CCCN4C(=O)[C@H]([C@@H](C)CC)NC(=O)[C@H]([C@@H](C)O)NC(=O)[C@H](CC(=O)O)NC(=O)[C@H](CCC(=O)O)NC(=O)[C@@H](NC(=O)[C@H](CO)NC(=O)[C@@H](N)CCCNC(=N)N)CSSC[C@@H](C(N)=O)NC(=O)[C@H]([C@@H](C)O)NC(=O)CNC3=O)C(=O)N[C@@H]([C@@H](C)O)C(=O)N[C@@H](C)C(=O)N[C@@H](Cc3ccccc3)C(=O)N[C@@H](CCCCN)C(=O)N2)NC(=O)[C@H](Cc2ccccc2)NC(=O)[C@H](CO)NC(=O)[C@H](CC(C)C)NC(=O)[C@H](CCCNC(=N)N)NC(=O)[C@H](Cc2ccc(O)cc2)NC(=O)[C@H](CCCCN)NC1=O` [[Glu4, Lys16,Nva21]ShK-amide] are 0.405 nM, 0.086 nM and 0.427 nM.
In the case of `CC[C@H](C)[C@@H]1NC(=O)[C@H]([C@@H](C)O)NC(=O)[C@H](CC(=O)O)NC(=O)[C@H](CCC(=O)O)NC(=O)[C@@H](NC(=O)[C@H](CO)NC(=O)[C@@H](N)CCCNC(=N)N)CSSC[C@@H](C(N)=O)NC(=O)[C@H]([C@@H](C)O)NC(=O)CNC(=O)[C@@H]2CSSC[C@@H]3NC(=O)[C@H](CCCCN)NC(=O)[C@H](Cc4ccccc4)NC(=O)[C@H](C)NC(=O)[C@H]([C@@H](C)O)NC(=O)[C@H](CSSC[C@H](NC(=O)[C@H](Cc4ccccc4)NC(=O)[C@H](CO)NC(=O)[C@H](CC(C)C)NC(=O)[C@H](CCCNC(=N)N)NC(=O)[C@H](Cc4ccc(O)cc4)NC(=O)[C@H](CCCCN)NC(=O)[C@H](CO)NC(=O)[C@H](CO)NC(=O)[C@H](Cc4c[nH]cn4)NC(=O)[C@H](CCCCN)NC3=O)C(=O)N[C@@H](CCCNC(=N)N)C(=O)N[C@@H](CCCCN)C(=O)N[C@@H]([C@@H](C)O)C(=O)N2)NC(=O)[C@H](CCCNC(=N)N)NC(=O)[C@H](CO)NC(=O)[C@H](CCCCN)NC(=O)[C@@H]2CCCN2C1=O` [[Glu4, Lys16,Ser21]ShK-amide], the IC50 in assay [1] was determined as 0.86 nM; on hKv1.3, 0.098 nM; in assay [2], 1.99 nM.
